Broadly, the IC50 is the concentration that gives 50% inhibition.

Some results are limits rather than exact numbers.

The first test deals with T1, GST-FAK (N-terminal GST fusion with truncated human FAK (376-1052 (end) amino acids)) (Homo sapiens, UniProt Q05397).
T1 construct: truncated human FAK (376-1052 (end) amino acids)
T1 sequence (Q05397 376-1052): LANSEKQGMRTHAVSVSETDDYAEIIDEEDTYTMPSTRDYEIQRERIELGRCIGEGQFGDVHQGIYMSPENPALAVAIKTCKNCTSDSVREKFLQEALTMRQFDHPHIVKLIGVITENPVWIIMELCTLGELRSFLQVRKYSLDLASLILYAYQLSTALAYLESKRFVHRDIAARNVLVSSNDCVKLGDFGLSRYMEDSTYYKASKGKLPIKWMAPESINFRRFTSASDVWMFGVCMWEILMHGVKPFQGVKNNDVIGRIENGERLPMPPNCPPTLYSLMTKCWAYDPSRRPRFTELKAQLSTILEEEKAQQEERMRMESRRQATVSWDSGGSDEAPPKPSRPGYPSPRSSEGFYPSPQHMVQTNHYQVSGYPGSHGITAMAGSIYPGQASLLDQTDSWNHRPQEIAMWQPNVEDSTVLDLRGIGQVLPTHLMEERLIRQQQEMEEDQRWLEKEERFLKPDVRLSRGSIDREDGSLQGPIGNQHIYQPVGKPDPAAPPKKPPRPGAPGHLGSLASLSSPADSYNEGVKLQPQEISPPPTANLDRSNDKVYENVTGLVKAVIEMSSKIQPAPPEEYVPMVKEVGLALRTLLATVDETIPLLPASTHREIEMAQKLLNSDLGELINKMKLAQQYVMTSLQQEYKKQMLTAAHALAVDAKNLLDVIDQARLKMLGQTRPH
Nature of the test: Biochemical enzyme assay for FAK activity (Caliper LC3000 mobility shift). To be noted: Table 1; 100 uM ATP; read-out: FAK IC50. The protocol: 1. Biochemical Enzyme Assays for FAK Activity
The FAK assays described here are performed on two Caliper Life Sciences systems, the LC3000 and the EZ Reader II. These provide data on enzyme activity via measurement of the relative amounts of phosphorylated or unphosphorylated fluorescently labelled substrate peptide at the end of an enzymatic reaction. These different states of peptide are resolved by applying a potential difference across the sample. The presence of the charged phosphate group on the product (as opposed to the substrate) causes different peptide mobility between the two peptides. This is visualized by excitation of the fluorescent label on the substrate and product peptides and represented as peaks within the analysis software.
In order to measure inhibitor activity of FAK, inhibitors in the Caliper Life Sciences LC3000, a TTP Mosquito liquid handling instrument is used to place 0.25 ul of the appropriate concentration of inhibitor in 100% DMSO (for a dose response curve calculation) into each well of a 384-well plate. To this reaction components are added to a final volume of 25 ul: • 0.067 ng/ul GST-FAK (N-terminal GST fusion with truncated human FAK (376-1052 (end) amino acids)) • 100 uM ATP • 1 mM DTT • 1 mM MgCl2 • 1 uM substrate peptide (sequence FITC-KGWMEDYDYVHLQGKK-(CONH2)SEQ ID NO: 1)) • 1 mM FERM peptide (sequence NH2-GATQSFIIR-COOH (SEQ ID NO: 2)) • 100 mM HEPES pH 7.5 • 0.015% Brij-35
The reaction is incubated for 90 min at 25 C, and then stopped by the addition of 70 ul of Stop buffer (100 mM HEPES pH 7.5, 0.015% Brij-35, 10 mM EDTA).
The plate is read on a Caliper LC 3000 in an Off-Chip mobility shift assay format, using the following parameters for a 12-sipper chip: screening pressure—1.9 psi, upstream voltage—3000, downstream voltage—700. These conditions cause unphosphorylated substrate and phosphorylated product peptide to resolve as separate peaks allowing direct measurement of percentage of conversion of substrate to product. The percent conversion can be plotted against concentration of inhibitor to produce a sigmoid dose response curve, from which an IC50 can be calculated using XLFit for Microsoft Excel.
With `Fc1ccc(CNc2ccnc(-c3cncc(Cl)c3)n2)cc1` [Compound 39, [2-(5-Chloro-pyridin-3-yl)-pyrimidin-4-yl]-(4-fluoro-benzyl)-amine], the IC50 is 100 to 1000 nM.

The test is the same for the next values; noted with them: Table 3; 100 uM ATP; read-out: FAK IC50.
As for `Nc1ncccc1-c1nccc(NCc2cccc3c2OCO3)n1` [Compound 122, 2-(2-Aminopyridin-3-yl)-N-(1,3-benzodioxol-4-ylmethyl)pyrimidin-4-amine], the IC50 was in the range of 100 to 1000 nM.

On to `CS(=O)(=O)c1ccc(CNc2ccnc(-c3cccnc3N)n2)cc1` [Compound 99, 2-(2-Aminopyridin-3-yl)-N-[4-(methylsulfonyl)benzyl]pyrimidin-4-amine], for which the IC50 was above 10000 nM.

For `Cc1cc(NCc2cccc(C(F)(F)F)c2)nc(-c2cccnc2)n1` [Compound 140, 6-Methyl-2-pyridin-3-yl-N-[3-(trifluoromethyl)benzyl]pyrimidin-4-amine], the 50% inhibitory concentration (IC50) was above 10000 nM. With `Nc1ncccc1-c1nccc(NCc2ccc(C(F)(F)F)cc2)n1` [Compound 96, 2-(2-Aminopyridin-3-yl)-N-[4-(trifluoromethyl)benzyl]pyrimidin-4-amine], the IC50 was above 10000 nM. Turning to `Nc1ncccc1-c1nccc(NCc2cnccc2C(F)(F)F)n1` [Compound 103, 2-(2-Aminopyridin-3-yl)-N-{[4-(trifluoromethyl)pyridin-3-yl]methyl}pyrimidin-4-amine], the IC50 lay within 1000 to 10000 nM.

Turning to `CNC[C@H](Nc1ccnc(-c2cccnc2N)n1)c1ccccc1` [Compound 147, (R)-N1-[2-(2-Amino-pyridin-3-yl)-pyrimidin-4-yl]-N2-methyl-1-phenyl-ethane-1,2-diamine], the IC50 was above 10000 nM.

With `Nc1ccc(-c2nccc(NCc3ccccc3C(F)(F)F)n2)cn1` [Compound 94, 2-(6-Aminopyridin-3-yl)-N-[2-(trifluoromethyl)benzyl]pyrimidin-4-amine], the IC50 fell in the range of 1000 to 10000 nM.

The test is the same for the next values; noted with them: Table 5; 100 uM ATP; read-out: FAK IC50.
On to `COc1cncc(-c2nccc(NCc3cccc(C#N)c3)n2)c1` [Compound 225, 3-{[2-(5-Methoxy-pyridin-3-yl)-pyrimidin-4-ylamino]-methyl}-benzonitrile], for which the IC50 lay within 1000 to 10000 nM.

On to `COc1cncc(-c2nccc(NCc3ccc(F)cc3C(F)(F)F)n2)c1` [Compound 204, (4-Fluoro-2-trifluoromethyl-benzyl)-[2-(5-methoxy-pyridin-3-yl)-pyrimidin-4-yl]-amine], for which the IC50 was below 100 nM. Turning to `Fc1cccnc1CNc1ccnc(-c2cncc(C(F)(F)F)c2)n1` [Compound 208, (3-Fluoro-pyridin-2-ylmethyl)-[2-(5-trifluoromethyl-pyridin-3-yl)-pyrimidin-4-yl]-amine], the IC50 lay in the range of 100 to 1000 nM. On to `CC(NC(=O)c1cc(NCc2ccc(F)cc2F)nc(-c2cncc(C(F)(F)F)c2)n1)C(N)=O` (stereo not shown) [Compound 263, 6-(2,4-Difluoro-benzylamino)-2-(5-trifluoromethyl-pyridin-3-yl)-pyrimidine-4-carboxylic acid (1-carbamoyl-ethyl)-amide], for which the IC50 was below 100 nM. For the compound `Fc1ccc(-c2nccc(NCc3ccccc3F)n2)cn1` [Compound 207, (2-Fluoro-benzyl)-[2-(6-fluoro-pyridin-3-yl)-pyrimidin-4-yl]-amine], the IC50 is above 10000 nM. Take `Fc1ccc(CNc2cc(-c3cncc(C(F)(F)F)c3)nc(-c3cncc(C(F)(F)F)c3)n2)c(F)c1` [Compound 266, [2,6-Bis-(5-trifluoromethyl-pyridin-3-yl)-pyrimidin-4-yl]-(2,4-difluoro-benzyl)-amine]: the IC50 was 1000 to 10000 nM. With `COc1cncc(-c2nccc(NCc3ccncc3)n2)c1` [Compound 230, [2-(5-Methoxy-pyridin-3-yl)-pyrimidin-4-yl]-pyridin-4-ylmethyl-amine], the 50% inhibitory concentration (IC50) is above 10000 nM. `C[C@@H](Nc1ccnc(-c2cncc(C(F)(F)F)c2)n1)c1ccc(F)cc1` [Compound 270, [(R)-1-(4-Fluoro-phenyl)-ethyl]-[2-(5-trifluoromethyl-pyridin-3-yl)-pyrimidin-4-yl]-amine]: the IC50 lay within 100 to 1000 nM.

The values above are taken from patent US9199962B2, “Substituted azaheterocycles for the treatment of cancer” (Merck Patent GmbH, priority 2011, dated 2015).
